Publication PMC8666671, “Fine-tuning spermidine binding modes in the putrescine binding protein PotF” (The Journal of Biological Chemistry, 2021)
Numbering of substitutions follows the chain as printed. Where “and” joins values, the source holds several entries; their conditions need not be identical. Equal values may be shown once.

Columns and labels:
PotF_Prox = target: T1, PotF_Prox (Escherichia coli, UniProt P31133, D247S/D39E/S38T); experiment: ITC, PotF_Prox (S38T, D39E, D247S); type: binding; settings: 293 K, 50 mM Tris pH 8, 300 mM NaCl, biological triplicates
T1 construct: without the N-terminal signal peptide; made in house; host or cells: E. coli BL21 (DE3)
T1 sequence (P31133 27-370 S38T/D39E/D247S): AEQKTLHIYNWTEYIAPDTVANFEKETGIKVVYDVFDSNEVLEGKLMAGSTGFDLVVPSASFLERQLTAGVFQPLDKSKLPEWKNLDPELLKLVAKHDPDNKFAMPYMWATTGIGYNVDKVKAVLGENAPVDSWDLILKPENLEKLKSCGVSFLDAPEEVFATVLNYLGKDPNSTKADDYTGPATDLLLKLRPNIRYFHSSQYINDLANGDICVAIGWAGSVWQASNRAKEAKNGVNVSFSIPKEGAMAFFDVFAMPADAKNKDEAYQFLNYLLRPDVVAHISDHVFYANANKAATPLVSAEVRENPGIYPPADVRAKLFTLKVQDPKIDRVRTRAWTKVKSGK
Experimental: (§1) Ligands were always freshly prepared in the exact same buffer as was used for the size exclusion run. Samples were degassed, and temperature was equilibrated using a degassing station (TA Instruments). About 400 μl protein sample of different concentrations (Table S5) depending on affinity was transferred into the sample cell of a nanoITC (TA Instruments), and 50 μl of about tenfold concentrated ligand solution was loaded into the injection needle. Multiple injection measurements were carried out at 293 K, 300 rpm stirring rate, and 250 s spacings between each 2 μl injection. The heat quantity past injection was determined by integration of the measured peaks. Every protein–ligand combination was measured as biological triplicate. Subtraction of heat of dilution measurements, peak integration, and one site binding fits were done with NanoAnalyze (TA Instruments). Reported errors are the errors between fits of the measured triplicates.

PotF/D–E39D–Y87S = target: T2, PotF/D–E39D–Y87S (Escherichia coli, UniProt P31133, A182D/D247S/F276W/L348Q/S38T); experiment: ITC, PotF/D–E39D–Y87S; type: binding; settings: 293 K
T2 construct: without the N-terminal signal peptide; made in house; host or cells: E. coli BL21 (DE3)
T2 sequence (P31133 27-370 S38T/A182D/D247S/F276W/L348Q): T1 sequence (P31133 27-370 S38T/D39E/D247S) with E13D, A156D, F250W, L322Q
Experimental: as §1

| Structure (SMILES) | KD (PotF_Prox) | n (PotF/D–E39D–Y87S; ITC binding stoichiometry) | ΔG (PotF/D–E39D–Y87S; ITC) | ΔH (PotF/D–E39D–Y87S; ITC) | −TΔS (PotF/D–E39D–Y87S; ITC) | Kd (PotF/D–E39D–Y87S; ITC, 50 mM Tris pH 8, 300 mM NaCl, biological triplicates) |
| --- | --- | --- | --- | --- | --- | --- |
| NCCCCN [PUT, putrescine] | abolishes association | – | – | – | – | – |
| NCCCCNCCCN [SPD, spermidine] | – | 0.98 ± 0.01 | -28.2 ± 0.25 kJ/mol | -27.4 ± 0.544 kJ/mol | -0.753 ± 0.795 kJ/mol | 9.4 µM and 9.44 µM |
